Laboratory results taken from US20040253257A1, “Biological compositions and methods for treatment of liver cancer” (priority 2003, published 2004).
Where two headings read alike, the source gives them in different places.

What was measured:
[1] = system: Liver tumor H-22; assay: C3H mouse model of liver cancer (H-22), growth of tumors; conditions: 31st day from tumor inoculation; 30 days treatment; yeast 0.3 ml oral once per day, CTX 30 mg/kg iv per day
Experimental: (§1) The biological composition comprising 10^8 cells per ml of activated and conditioned yeast cells of the strain Saccharomyces cerevisiae Hansen strain AS2.503 was prepared by the methods described in Section 5.1 and subsections therein.
(§2) The mice injected with tumor cells were divided into 4 experimental groups of ten mice per group and one control group. The four experimental groups were triplicated (i.e., using a total of 120 mice in the experimental groups).
(§3) The mice received the biological compositions, untreated yeast cells, CTX or saline on the same day as the tumor cells were transplanted. The mice in group CK2 also started receiving saline on the same day as the other four groups. The biological compositions, untreated yeast cells and saline were administered orally by a feeding tube and the CTX by intravenous injection for 30 consecutive days.

[2] = system: human liver cancer; conditions: for Number of live animals remaining in the groups after 30 days of treatment: 30 mice per group
Experimental: (§4) The survival time of mice after tumor injection and treatment was studied.
The biological composition comprising […] of activated and conditioned yeast cells of the strain Saccharomyces cerevisiae Hansen strain AS2.503 was prepared by the methods described in Section 5.1 and subsections therein.
The animals were prepared in a similar manner as described in Section 6.1.
The mice injected with tumor cells were divided into 4 experimental groups of ten mice per group and one control group. The four experimental groups were triplicated (i.e., using a total of 120 mice in the experimental groups). In group 2AY, the mice received 0.3 ml of the biological composition once per day. In group 2NY, the mice received 0.3 ml of the untreated yeast cells once per day. In group 2CTX, the mice were injected intravenously with 30 mg of cyclophosphamide (CTX) per kg body weight once a week for four weeks. In group 2CK1, the mice received 0.3 ml of physiological saline once per day.
as §3, with “2CK2” for “CK2”, “days. The mice were observed over 6 months from the day of their inoculation and survival was recorded. The weight of the mice, the weight of the liver, and the weight of the tumor were determined by standard techniques.” for “days.”

[3] = system: human liver cancer; assay: Swiss mouse model of human liver cancer, growth of tumors; conditions: 31st day from tumor inoculation; 30 days treatment; yeast 0.3 ml oral once per day, CTX 30 mg/kg iv once a week
Text: The animals were generally anaesthetized. […] Afterwards, the opening was sutured and the mice were put back into the cage.
as §2, §3

[4] = system: Liver tumor H-22; conditions: for Number of live animals remaining in the groups after 30 days of treatment: 30 mice per group
Experimental: as §4, §1
The animals were prepared in a similar manner as described in Section 8.1.
The mice injected with tumor cells were divided into 4 experimental groups of […] per group and one control group. The four experimental groups were triplicated […]. In group 2AY, the mice received 0.3 ml of the biological composition once per day. In group 2NY, the mice received 0.3 ml of the untreated yeast cells once per day. In group 2CTX, the mice were injected intravenously with 30 mg of cyclophosphamide (CTX) per kg body weight per day. In group 2CK1, the mice received 0.3 ml of physiological saline once per day.
The mice received the biological compositions, untreated yeast cells, CTX or saline on the same day as the tumor cells were transplanted. The mice in group 2CK2 also started receiving saline on the same day as the other four groups. The biological compositions, untreated yeast cells and saline were administered orally by a feeding tube and the CTX by intravenous injection for 30 consecutive days. The mice were observed over 6 months from the day of their inoculation and survival was recorded.

[5] = 0 month after cessation of treatment
[6] = 1 month after cessation of treatment
[7] = 2 months after cessation of treatment
[8] = 3 months after cessation of treatment
[9] = 4 months after cessation of treatment
[10] = 5 months after cessation of treatment
[11] = 6 months after cessation of treatment
[12] = from injection of tumor cells, 30 days treatment
[13] = mice that survived, observed over 6 months

O=P1(N(CCCl)CCCl)NCCCO1 (stereo not shown) [CTX, cyclophosphamide]
mean weight of liver and standard deviation [1]: 1,351 ± 9 mg
mean weight of mice and standard deviation [1]: 18.8 ± 0.7 g
mean weight of tumor nodules and standard deviation [1]: 253 ± 8 mg
Number of live animals remaining in the groups after 30 days of treatment [2, 5]: 30
Number of live animals remaining in the groups after 30 days of treatment [2, 6]: 30
Number of live animals remaining in the groups after 30 days of treatment [2, 7]: 27
Number of live animals remaining in the groups after 30 days of treatment [2, 8]: 22
Number of live animals remaining in the groups after 30 days of treatment [2, 9]: 19
Number of live animals remaining in the groups after 30 days of treatment [2, 10]: 7
Number of live animals remaining in the groups after 30 days of treatment [2, 11]: 0
survival of mice bearing liver cancer cells [2, 12]: all died after four months
mean weight of liver and standard deviation [2, 13]: all animals dead
mean weight of mice and standard deviation [2, 13]: all animals dead
mean weight of tumor nodules and standard deviation [2, 13]: all animals dead
mean weight of liver and standard deviation [3]: 1,372 ± 8 mg
mean weight of mice and standard deviation [3]: 17 ± 0.9 g
mean weight of tumor nodules and standard deviation [3]: 249 ± 9 mg
Number of live animals remaining in the groups after 30 days of treatment [4, 5]: 30
Number of live animals remaining in the groups after 30 days of treatment [4, 6]: 27
Number of live animals remaining in the groups after 30 days of treatment [4, 7]: 24
Number of live animals remaining in the groups after 30 days of treatment [4, 8]: 19
Number of live animals remaining in the groups after 30 days of treatment [4, 9]: 11
Number of live animals remaining in the groups after 30 days of treatment [4, 10]: 3
Number of live animals remaining in the groups after 30 days of treatment [4, 11]: 0
survival of mice bearing liver cancer cells [4, 12]: all died after four months
mean weight of liver and standard deviation [4, 13]: all animals dead
mean weight of mice and standard deviation [4, 13]: all animals dead
mean weight of tumor nodules and standard deviation [4, 13]: all animals dead
